According to patent US8993741B2, “SMNdelta7 degron: novel compositions and methods of use” (The Trustees of the University of Pennsylvania, priority 2009, dated 2015):
Peptide text beside a SMILES is read from it. * marks the point of attachment. Cbz = O=C(OCc1ccccc1)*

Key:
Luc-SMNΔ7 = Luc-SMNΔ7 degradation with proteolysis inhibitors in the presence of CHX; type: cell-based, human; conditions: for effect on decrease in Luc-SMNΔ7 signal: 5 hours in the presence of CHX
Experimental: FIG. 5 is a graph depicting the effect of proteasome inhibitors on inhibiting SMNΔ7 degradation. Luciferase activity is measured after application of proteasome inhibitors (MG132 and Lactacystin), the calpain inhibitor (Calpeptin), the autophagy inhibitor (3-methyladenine; 3-MA), and the lysosomal inhibitor (ammonium chloride; NH4Cl) in the presence of CHX for 5 hours. Error bars represent SDs from three independent experiments.
(§1) Cells (293T cells) were transfected with plasmids expressing various constructs including Luc-SMN, Luc-SMNΔ7, GFP-YG+EMLA or GFP-NS. Forty-eight hours after transfection, the cells were treated with CHX (0.1 mg/ml) for various times as indicated and then assayed for luciferase activity. Luciferase activity at each time point was calculated by comparison to those at time 0, which was set to 100%. Luciferase activities were measured using One-Glo reagent (Promega).
SMN was previously shown to be degraded by the proteasome (Burnett et al., 2009, Mol Cell Biol 29(5):1107-15; Chang et al., 2004, Neurochem. Int. 45(7):1107-12). To determine if SMNΔ7 is also degraded by this system, cells expressing Luc-SMNΔ7 were treated with proteasome inhibitors including MG132 and Lactaeystin, for 5 hours in the presence of CHX. […] Inhibitors of other proteolytic activities, such as lysosomal proteases, autophagy, and calpain (N1-14Cl, 3-methyladenine, and calpeptin, respectively) had no effect.

SMN = test: MG132 effect on amount of HA-tagged SMN (Western blot); type: cell-based, human; conditions: 10 μM MG132, 16 hours, 293T cells
Experimental: (§2) FIG. 3, comprising FIG. 3A through FIG. 3D, is a series of images depicting the importance of residue S270 for the activity of the SMNΔ7-DEG through YG+EMLA. FIG. 3A is a schematic illustration depicting seven residues in the YG box that were each mutated to alanine, as indicated. […] depicts the results of Western blot analyses using an anti-HA tag antibody directed against HA-tagged SMN, SMNΔ7, and SMNΔ7^S270A expressed in 293T cells treated with DMSO or 10 μM MG132 (MG) for 16 hours. Fusion proteins were monitored by, and Magoh was used as a control. FIG. 3C is a graph depicting the quantification of HA-tagged proteins depicted in FIG. 3B and compared to HA-SMN without MG132 treatment. Protein amount (%) for SMNΔ7, and SMNΔ7^S270A are calculated relative to HA-SMN not treated with MG132, that is arbitrarily set to 100%. The fold change of each fusion protein amount upon MG132 treatment is indicated in red above the column. […]
(§3) To identify specific residues in the SMN07-DEG that are important for its activity, mutagenesis of the YG box was performed wherein every second residue was converted to alanine in the context of full-length SMNΔ7 and determined the half-life of each in 293T cells. […] The levels of the tagged SMN proteins were then monitored by Western blots using anti-HA antibody (FIG. 3B).

SMNΔ7^S270A = test: MG132 effect on amount of HA-tagged SMNΔ7^S270A (Western blot); type: cell-based, human; conditions: 10 μM MG132, 16 hours, 293T cells
Experimental: as §2, §3

SMNΔ7 = test: MG132 effect on amount of HA-tagged SMNΔ7 (Western blot); type: cell-based, human; conditions: 10 μM MG132, 16 hours, 293T cells
Experimental: as §2, §3

S5 cells = test: Rescue of S5 cell viability after tetracycline depletion of SMN; type: cell-based, chicken; conditions: retroviral expression, one week after tetracycline (1 μg/ml)
Experimental: FIG. 4, comprising FIG. 4A through FIG. 4D, is a series of images depicting the functionality of SMNΔ7^S270A in snRNP assembly and its ability to rescue SMN-deficient cells. FIG. 4 A is a series of panels depicting S5 cells cultured in the presence of tetracycline (1 μg/ml) to deplete endogenous SMN and infected with retroviruses expressing SMN, SMNΔ7, or SMNΔ7^S270A. FIG. 4B is a graph depicting cell growth as in FIG. 4A measured by monitoring the number of live cells at the indicated time points following tetracycline addition. FIG. 4C depicts the results of Western blot analyses of SMN protein in rescued cells (10 days after tetracycline addition). FIG. 4D is a graph depicting SMN complex activity (%) as measured by in vitro snRNP assembly on U4 snRNA in cytoplasmic extracts from rescued cells, using U4ΔSm RNA as a control.
S5 cells were maintained and infected with retroviruses expressing SMN, SMNΔ7, and SMNΔ7^S270A as described (Wang et al., 2001, J. Biol. Chem. 276:9599).
To determine whether SMNΔ7^S270A is a functional SMN protein, a previously established cell system, the S5 cell line, was used to investigate if SMNΔ7^S270A could rescue the viability of SMN-depleted cells. […]

293T cells = test: Protein stability assay: luciferase activity of Luc-fused constructs after CHX treatment; type: cell-based
Source text: To construct plasmids expressing Luc-fused proteins, the luciferase gene was cloned into pcDNA3.1 vector at HindIII/KpnI sites, then DNA fragments encoding full-length wild type human SMN, SMNΔ7, several deletion mutants of SMNΔ7, and optiPEST were inserted into the KpnI/XhoI sites. SMNΔ7 mutants with single amino acid change were generated by mutating residues in YG+EMLA to alanine by Quickchange site-directed mutagenesis kit (Stratagene).
as §1
A reporter system that recapitulates the differential stability of full-length SMN and SMNΔ7 and allows quantitative assessment of SMNΔ7's instability determinants was developed. […] Forty-eight hours after transfection, cells were treated with the protein synthesis inhibitor cycloheximide (CHX), and luciferase activity was measured at time intervals of up to 10 hours. […]

With Cn1cnc(N)c2ncnc1-2 [3-methyladenine] the “effect on decrease in Luc-SMNΔ7 signal” value (Luc-SMNΔ7) was “no effect”.
For C[C@@H]1C[C@@H]([C@H](O)CC2CC(=O)NC(=O)C2)C(=O)[C@@H](C)C1 [CHX, cycloheximide], the “decrease in signal (luciferase)” value (Luc-SMNΔ7; CHX alone, 5 hours, cells expressing Luc-SMNΔ7) was 60%.
In the case of CC(=O)N[C@@H](CSC(=O)[C@]1([C@@H](O)C(C)C)NC(=O)[C@H](C)[C@@H]1O)C(=O)O [Lactacystin], the “effect on decrease in Luc-SMNΔ7 signal” value (Luc-SMNΔ7) is reported as “much smaller decrease”.
In the case of CC(C)C[C@@H](C=O)NC(=O)[C@H](CC(C)C)NC(=O)[C@H](CC(C)C)NC(=O)OCc1ccccc1 [MG132] (Cbz-Leu-Leu-Leu-aldehyde), the “effect on the amount of SMN” value (SMN) is reported as “only a moderate effect”, the “effect on decrease in Luc-SMNΔ7 signal” value (Luc-SMNΔ7) is reported as “much smaller decrease” and the “effect on the amount of SMNΔ7^S270A” value (SMNΔ7^S270A) is reported as “only a moderate effect”. The “increase in the amount of SMNΔ7” value (SMNΔ7) was 3.4 fold.
For Cl.N [N1-14Cl, ammonium chloride], the “effect on decrease in Luc-SMNΔ7 signal” value (Luc-SMNΔ7) was “no effect”.
CCCC[C@@H](C=O)NC(=O)[C@H](CC(C)C)NC(=O)OCc1ccccc1 [calpeptin] was tested, and the “effect on decrease in Luc-SMNΔ7 signal” value (Luc-SMNΔ7) was “no effect”.
For “SMN: full-length wild type human survival of motor neurons protein, tested as Luc- or HA-fusion or retrovirally expressed”, the “rescue of viability of SMN-depleted S5 cells” value (S5 cells) was “rescued the viability of S5 cells”, the “half-life (t1/2)” value (293T cells; Luc fusion in 293T cells, CHX 0.1 mg/ml, up to 10 hours) was greater than 8 h and the “amount of SMN relative to SMNΔ7” value (293T cells; after 10 hours of CHX chase) was 3 times.
